Test results taken from ChEMBL document CHEMBL4602656, “Synthesis and evaluation of 4-(1,3,4-oxadiazol-2-yl)-benzenesulfonamides as potent carbonic anhydrase inhibitors” (Bioorg Med Chem Lett, 2020).
The source made the active and inactive calls. The rule behind the calls is not given here.

What was measured:
[1] = tested on: HEK-293T; assay: Cytotoxicity against human HEK293T cells assessed as reduction in cell viability at 5 to 200 uM incubated for 48 hrs by MTS assay; format: cell-based
[2] = tested on: Mus musculus; assay: Anti-hypoxia in mouse assessed as increase in mouse survival at 400 mg/kg, po administered for 3 days and observed upto day 3 after dosing of 1.5 hrs; format: functional, organism-based
[3] = Solubility of compound; format: physicochemical

Structure (SMILES) | Activity [1] | Activity [2] | solubility [3]
CN(C)c1ccc(-c2nnc(-c3ccc(S(N)(=O)=O)cc3)o2)cc1.CS(=O)(=O)O | Non-Toxic | Active | –
CC(=O)Nc1nnc(S(N)(=O)=O)s1 [ACETAZOLAMIDE] | Non-Toxic | Active | –
NS(=O)(=O)c1ccc(-c2nnc(-c3cccc(Cl)c3Cl)o2)cc1 | Non-Toxic | – | Insoluble
Cc1ccc(-c2nnc(-c3ccc(S(N)(=O)=O)cc3)o2)c(C)c1 | Non-Toxic | – | Insoluble
